Results reported in patent US6989375B2, “Enhanced expression of transgenes” (priority 1996, dated 2006).

How the values were obtained:
H1299 cells [1] = assay: β-gal expression by X-gal staining after Ad/CMV/β-gal infection of agent-treated cells; type: cell-based, human
Procedure: Gene Delivery Protocol: In vitro gene delivery was performed by incubating cells in six-well plates (Falcon Plastics, Lincoln Park, N.J.) for two hours with Adv/CMV/β-gal in appropriate medium supplemented with 2% FCS. The multiplicity of infection (MOI: number of viral particles per target cell) was based on cell counts of untreated wells. Fresh, complete medium with the appropriate concentration of FCS was then added to the wells at the end of the infection period and cells were then incubated for 20 hours at 37° C., 5% CO2. After washing the cells with ice cold PBS, the cells were fixed with ice-cold 1.25% glutaraldehyde and stained with X-gal (5-bromo-4-chloro-3-indolyl-β-d-galactoside; Gibco BRL) as previously described (MacGregor et al., 1987). The transduction efficiency by Adv/CMV/β-gal was determined by the percentage of positive stained cells (blue) for β-galactosidase activity (1000 cells counted per well).
Time Course and Dose Response: To determine the time course of enhancement, H1299 and H460 cells were seeded in 6-well plates (2×10^5 cells/2 mls/well). After an overnight incubation period (37° C., 5% CO2), the initial medium was replaced with freshly prepared media (2 ml) containing 0.062 μg/ml CDDP (Sigma Chemicals, St. Louis, Mo.) (CDDP was prepared fresh by dissolving in distilled water) and the cells were then incubated for 24 hours at 37° C., with 5% CO2. CDDP-treated cells were then washed twice with PBS and subsequently infected with Ad/CMV/β-gal (MOI=1 for H1299 and MOI=5 for H460) on days 0, 1, 2, 3, 4, 5 or 6 following CDDP removal, to determine the time point at which maximal enhancement of expression was occurring. To establish the dose of CDDP needed to produce maximum enhancement, the cells were treated with different concentrations of CDDP (serial, 1:4 dilutions, ranging from 4 μg/ml to 0.0002 μg/ml, 5 ml per 60 mm dish) for 24 hours and subsequently incubated with Ad/CMV/β-gal 48 hours after removal of CDDP. To study if exposure of malignant cells to different classes of antineoplastic agents would lead to a similar elevation of gene expression, H1299 cells were treated with vincristine (Eli Lilly and Co, Indianapolis, Ind.), methotrexate (Lederle Pharmaceuticals, Pearl River, N.Y.), 5-fluorouracil (SoloPak Laboratories, Elk Grove Village, Ill.), epotoside (Bristol Laboratories, Princeton, N.J.) and transplatin (the isomer of CDDP that has no anticancer activity, Sigma Chemical, St. Louis, Mo.) in the similar fashion as CDDP treatment and then infected with Ad/CMV/β-gal 48 hours after removal of drug-containing media. H1299 cells were treated with 2, 4, 8, or 16 Grey (Gy) of ionizing irradiation and then similarly infected 72 hours after irradiation. Untreated cells that were similarly infected, served as controls.

[2] = test system: primary human foreskin fibroblasts; conditions: 16 to 20 hours exposure to high concentrations, followed immediately by transduction; cited from earlier work
[3] = test system: p53 protein in H1299 cells; assay: p53 immunocytochemical staining; type: cell-based, human; conditions: 24 hrs after p53 gene transfer (MOI=5); prior CDDP exposure
Procedure: The infected cells were fixed 3.8% formalin at 12 and 24 hrs after transfection with Adv/CMV/p53 (MOI=5) with or without prior CDDP exposure and treated with 3% H2O2 in methanol for 5 minutes. The Vectastain kit (Vector Laboratories, Burlingana, Calif.) was used for the immunocytochemical staining. The primary antibody used was the mouse monoclonal anti-p53 antibody Pab 1801 (Oncogene Science, Manhasset, N.Y.). The secondary antibody was the biotinylated anti-mouse IgG antibody (Vector Laboratories). The avidin-biotin-peroxidase complex (ABC) kit was used to detect the antigen-antibody complex. The cells were counterstained with Harris Hematoxylin (Sigma, St. Louis, Mo.) and mounted with cover slips using Cytoseal 60.

H1299 cells [4] = assay: β-gal expression after gene delivery with Ad/PLL/DNA complex or lipofectamine in CDDP-treated cells; type: cell-based, human; conditions: 48 hrs after CDDP removal
Procedure: Gene Transfer Vectors: The recombinant adenovirus carrying the Escherichia coli β-galactosidase gene under the control of the human cytomegalovirus enhancer/promotor (Ad/CMV/β-gal) or the replication defective adenovirus were propagated on 293 cells and purified and stored using techniques previously reported (Nguyen et al., 1996). Viral titer was determined by UV spectrophotometric analysis (Nguyen et al., 1996a; 1996b). To determine if the CDDP-induced enhancement of gene expression would be dependent on the method of gene delivery, two other gene delivery systems were used: the Ad/PLL/DNA complex (Nguyen et al., 1996a; 1996b) and cationic liposomes (Lipofectamine, Gibco BRL). CDDP (0.062 μg/ml)-treated H1299 cells were incubated with either gene delivery system carrying a plasmid that contained the β-gal gene under the control of the CMV enhancer/promotor (CMV/β-gal) 48 hours after drug removal. Plasmid DNA was isolated by the alkaline lysis technique and purified by using Qiagen DNA purification kits (Qiagen, Chatsworth, Calif.). Plasmid containing liposome preparations and gene transfer were performed according to the manufacturer's protocol. The conjugated Ad/PLL/DNA complex was constructed and used to deliver the β-gal gene to H1299 and H460 cells as described elsewhere (Nguyen et al., 1996a; 1996b).

N.N.[Cl][Pt][Cl] [CDDP, cis-dichlorodimminocisplatin]
CDDP concentration at which maximal enhancement of β-gal gene expression occurred (H1299 cells [1]; 24 h exposure, infected 48 hours after CDDP removal): 0.062 µg/mL
Time of gene transfer after drug treatment for maximal enhancement (H1299 cells [1]; CDDP 0.062 μg/ml): about 48 hours
Enhancement of β-gal gene expression (H1299 cells [1]; CDDP at 0.0039 and 1 μg/ml, infected 48 hours after CDDP removal): also an enhancement
Enhancement of β-gal expression (FIG. 3) (H1299 cells [1]; drugs at 0.062 μg/ml or irradiated with 8 Greys, stained 24 hrs after infection): Enhancement of β-gal expression was observed
Magnitude of maximal enhancement of transgene expression (FIG. 4B) (H1299 cells [1]; gene transfer 48 hours after exposure to 0.062 μg/ml of CDDP): 2.7 fold
Susceptibility to AAV transduction [2]: more susceptible to transduction
p53 immunocytochemical staining [3]: almost all of the CDDP-treated cells stained positive
β-gal gene expressing cells compared with adenovirus-mediated gene transfer (H1299 cells [4]; cationic phospholipid lipofectamine carrying CMV/β-gal plasmid): same magnitude
β-gal gene expressing cells compared with adenovirus-mediated gene transfer (H1299 cells [4]; conjugated Ad/PLL/DNA complex carrying CMV/β-gal plasmid): same magnitude
